Assay results: patent US11180474B2 (BRISTOL-MYERS SQUIBB COMPANY, priority 2016, dated 2021)

molecular target: T1, human TLR9 (Homo sapiens, UniProt Q9NR96); test: TLR9 inhibition reporter assay (HEK-Blue cells, SEAP reporter, ODN2006 stimulation); format: cell-based; settings: HEK-Blue cells overexpressing human TLR9, ODN2006 5 nM
T1 construct: host or cells: HEK-Blue cells
T1 sequence (Q9NR96 26-1032): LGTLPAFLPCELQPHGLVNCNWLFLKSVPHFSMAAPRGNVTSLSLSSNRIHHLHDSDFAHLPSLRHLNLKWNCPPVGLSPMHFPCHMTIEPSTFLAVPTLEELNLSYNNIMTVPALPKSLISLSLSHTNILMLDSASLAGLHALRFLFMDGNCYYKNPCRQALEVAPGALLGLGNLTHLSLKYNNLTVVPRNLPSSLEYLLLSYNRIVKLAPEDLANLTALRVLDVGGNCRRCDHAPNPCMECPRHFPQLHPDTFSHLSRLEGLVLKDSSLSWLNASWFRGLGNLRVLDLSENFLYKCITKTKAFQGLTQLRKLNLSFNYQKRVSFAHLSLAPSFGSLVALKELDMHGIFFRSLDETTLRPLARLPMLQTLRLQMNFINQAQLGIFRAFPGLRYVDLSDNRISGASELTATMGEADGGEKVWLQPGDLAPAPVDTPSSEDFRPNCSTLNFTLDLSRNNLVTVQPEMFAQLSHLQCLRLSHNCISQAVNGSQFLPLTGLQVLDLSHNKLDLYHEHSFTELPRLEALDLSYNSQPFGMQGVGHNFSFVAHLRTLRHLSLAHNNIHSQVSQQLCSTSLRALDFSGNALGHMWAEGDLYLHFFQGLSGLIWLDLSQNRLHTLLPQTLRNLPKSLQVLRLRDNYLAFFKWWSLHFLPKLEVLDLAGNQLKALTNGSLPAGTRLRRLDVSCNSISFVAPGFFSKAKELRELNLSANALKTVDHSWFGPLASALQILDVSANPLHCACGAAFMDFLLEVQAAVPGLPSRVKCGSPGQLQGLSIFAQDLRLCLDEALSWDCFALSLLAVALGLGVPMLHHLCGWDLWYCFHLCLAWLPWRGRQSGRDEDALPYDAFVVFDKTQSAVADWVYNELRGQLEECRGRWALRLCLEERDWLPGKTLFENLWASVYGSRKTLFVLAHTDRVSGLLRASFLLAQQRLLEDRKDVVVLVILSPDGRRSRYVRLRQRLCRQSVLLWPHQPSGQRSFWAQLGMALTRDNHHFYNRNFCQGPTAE
How it was run: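 HEK-Blue cells overexpressing human TLR7, TLR8 or TLR9 carry a SEAP reporter driven by NF-κB/AP-1 sites. Compounds (0.05 nM–50 μM) were preincubated 30 min at room temperature, then cells were stimulated with gardiquimod 7.5 μM (TLR7), R848 15.9 μM (TLR8) or ODN2006 5 nM (TLR9) for 22 h at 37 °C.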

IC50 | SMILES
≥ 50000 nM | CCc1c(-c2ccc(OC)c(OC)c2)[nH]c2ccc(C3CCN(C(=O)CN4CCCC(C(=O)O)C4)CC3)cc12 (racemic) [Example 176, 1-(2-(4-(2-(3,4-dimethoxyphenyl)-3-ethyl-1H-indol-5-yl)piperidin-1-yl)-2-oxoethyl)piperidine-3-carboxylic acid]
5230 nM | CCc1c(-c2ccc(OC)c(OC)c2)[nH]c2ccc(C3CCN(C(=O)CN4CCCC(C(=O)N(CC)CC)C4)CC3)cc12 (single isomer, unassigned) [Example 178, 1-(2-(4-(2-(3,4-dimethoxyphenyl)-3-ethyl-1H-indol-5-yl)piperidin-1-yl)-2-oxoethyl)-N,N-diethylpiperidine-3-carboxamide]
747 nM | CCc1c(-c2ccc(OC)c(OC)c2)[nH]c2ccc(C3CCN(C(=O)CN4CCCC(C(=O)N(CC)CC)C4)CC3)cc12 (single isomer, unassigned) [Example 179, 1-(2-(4-(2-(3,4-dimethoxyphenyl)-3-ethyl-1H-indol-5-yl)piperidin-1-yl)-2-oxoethyl)-N,N-diethylpiperidine-3-carboxamide]
221 nM | COc1ccc(-c2[nH]c3ccc(C4CCN(C5CCN(CC(C)C)CC5)CC4)cc3c2C)cc1OC [Example 6, 2-(3,4-dimethoxyphenyl)-5-(1′-isobutyl-[1,4′-bipiperidin]-4-yl)-3-methyl-1H-indole]
360 nM | COc1ccc(-c2[nH]c3ccc(C4CCN(C5CCN(Cc6ccccc6)CC5)CC4)cc3c2C)cc1OC [Example 9, 5-(1′-benzyl-[1,4′-bipiperidin]-4-yl)-2-(3,4-dimethoxyphenyl)-3-methyl-1H-indole]
202 nM | COc1ccc(-c2[nH]c3ccc(C4CCN(C5CCN(C(C)C)CC5)CC4)cc3c2C)cc1OC [Example 10, 2-(3,4-dimethoxyphenyl)-5-(1′-isopropyl-[1,4′-bipiperidin]-4-yl)-3-methyl-1H-indole]
737 nM | CNCCN1CCC(c2ccc3c(c2)c(C)c(-c2ccc(OC)c(OC)c2)n3C)CC1 [Example 114, 2-(4-(2-(3,4-dimethoxyphenyl)-1,3-dimethyl-1H-indol-5-yl)piperidin-1-yl)-N-methylethan-1-amine]
77 nM | COc1ccc(-c2[nH]c3cc(C)c(C4CCN(C5CCN(C(C)C)CC5)CC4)cc3c2C)cc1OC [Example 115, 2-(3,4-dimethoxyphenyl)-5-(1′-isopropyl-[1,4′-bipiperidin]-4-yl)-3,6-dimethyl-1H-indole-di-trifluoroacetic acid]
830 nM | CNCCN1CCC(c2ccc3[nH]c(-c4ccc(OC)c(OC)c4)c(CC(C)C)c3c2)CC1 [Example 116, trifluoroacetic acid]
157 nM | COc1ccc(-c2[nH]c3ccc(C4CCN(C5CCN(CC(C)C)CC5)CC4)cc3c2Cl)cc1OC [Example 120, 3-chloro-2-(3,4-dimethoxyphenyl)-5-(1′-isobutyl-[1,4′-bipiperidin]-4-yl)-1H-indole di-trifluoroacetic acid]
378 nM | CCCc1c(-c2ccc(OC)c(OC)c2)[nH]c2ccc(C3CCN(C4CCN(CC(C)C)CC4)CC3)cc12 [Example 121, 2-(3,4-dimethoxyphenyl)-5-(1′-isobutyl-[1,4′-bipiperidin]-4-yl)-3-propyl-1H-indole-di-trifluoroacetic acid]
1410 nM | CCc1c(-c2ccc(OC)c(OC)c2)[nH]c2ccc(C3CCNCC3)cc12 [Example 122, 2-(3,4-dimethoxyphenyl)-3-ethyl-5-(piperidin-4-yl)-1H-indole]
170 nM | CCc1c(-c2ccc(OC)c(OC)c2)[nH]c2ccc(C3CCN(C4CCN(CC(C)C)CC4)CC3)cc12 [Example 123, 2-(3,4-dimethoxyphenyl)-3-ethyl-5-(1′-isobutyl-[1,4′-bipiperidin]-4-yl)-1H-indole-di-trifluoroacetic acid]
1280 nM | CCc1c(-c2ccc(OC)c(OC)c2)[nH]c2ccc(C3CCN(C4CCN(Cc5cnc(C)o5)CC4)CC3)cc12 [Example 124, 5-((4-(2-(3,4-dimethoxyphenyl)-3-ethyl-1H-indol-5-yl)-[1,4′-bipiperidin]-1′-yl)methyl)-2-methyloxazole]
410 nM | CCc1c(-c2ccc(OC)c(OC)c2)[nH]c2ccc(C3CCN(C4CCN(Cc5c[nH]cn5)CC4)CC3)cc12 [Example 125, 5-(1′-((1H-imidazol-4-yl)methyl)-[1,4′-bipiperidin]-4-yl)-2-(3,4-dimethoxyphenyl)-3-ethyl-1H-indole]
481 nM | CCc1c(-c2ccc(OC)c(OC)c2)[nH]c2ccc(C3CCN(C4CCN(Cc5coc(C)n5)CC4)CC3)cc12 [Example 126, 4-((4-(2-(3,4-dimethoxyphenyl)-3-ethyl-1H-indol-5-yl)-[1,4′-bipiperidin]-1′-yl)methyl)-2-methyloxazole]
267 nM | CCOC(=O)c1c(C)[nH]c(CN2CCC(N3CCC(c4ccc5[nH]c(-c6ccc(OC)c(OC)c6)c(CC)c5c4)CC3)CC2)c1C [Example 127, ethyl 5-((4-(2-(3,4-dimethoxyphenyl)-3-ethyl-1H-indol-5-yl)-[1,4′-bipiperidin]-1′-yl)methyl)-2,4-dimethyl-1H-pyrrole-3-carboxylate]
947 nM | CCc1c(-c2ccc(OC)c(OC)c2)[nH]c2ccc(C3CCN(C4CCN(Cc5cc6ccccc6[nH]5)CC4)CC3)cc12 [Example 128, 5-(1′-((1H-indol-2-yl)methyl)-[1,4′-bipiperidin]-4-yl)-2-(3,4-dimethoxyphenyl)-3-ethyl-1H-indole]
6230 nM | CCc1c(-c2ccc(OC)c(OC)c2)[nH]c2ccc(C3CCN(C4CCN(Cc5csnn5)CC4)CC3)cc12 [Example 130, 4-((4-(2-(3,4-dimethoxyphenyl)-3-ethyl-1H-indol-5-yl)-[1,4′-bipiperidin]-1′-yl)methyl)-1,2,3-thiadiazole]
447 nM | CCc1c(-c2ccc(OC)c(OC)c2)[nH]c2ccc(C3CCN(C4CCN(Cc5cc(C)n[nH]5)CC4)CC3)cc12 [Example 131, 2-(3,4-dimethoxyphenyl)-3-ethyl-5-(1′-((3-methyl-1H-pyrazol-5-yl)methyl)-[1,4′-bipiperidin]-4-yl)-1H-indole]
695 nM | CCc1c(-c2ccc(OC)c(OC)c2)[nH]c2ccc(C3CCN(C4CCN(Cc5cc(C)nn5C)CC4)CC3)cc12 [Example 132, 2-(3,4-dimethoxyphenyl)-5-(1′-((1,3-dimethyl-1H-pyrazol-5-yl)methyl)-[1,4′-bipiperidin]-4-yl)-3-ethyl-1H-indole]
657 nM | CCc1c(-c2ccc(OC)c(OC)c2)[nH]c2ccc(C3CCN(C4CCN(Cc5ccn(C)n5)CC4)CC3)cc12 [Example 133, 2-(3,4-dimethoxyphenyl)-3-ethyl-5-(1′-((1-methyl-1H-pyrazol-3-yl)methyl)-[1,4′-bipiperidin]-4-yl)-1H-indole]
2600 nM | CCc1c(-c2ccc(OC)c(OC)c2)[nH]c2ccc(C3CCN(C4CCN(Cc5cc6ccccc6n5C)CC4)CC3)cc12 [Example 137, 2-(3,4-dimethoxyphenyl)-3-ethyl-5-(1′-((1-methyl-1H-indol-2-yl)methyl)-[1,4′-bipiperidin]-4-yl)-1H-indole]
1400 nM | CCc1c(-c2ccc(OC)c(OC)c2)[nH]c2ccc(C3CCN(C4CCN(Cc5c(C)noc5C)CC4)CC3)cc12 [Example 138, 4-((4-(2-(3,4-dimethoxyphenyl)-3-ethyl-1H-indol-5-yl)-[1,4′-bipiperidin]-1′-yl)methyl)-3,5-dimethylisoxazole]
444 nM | CCc1c(-c2ccc(OC)c(OC)c2)[nH]c2ccc(C3CCN(C4CCN(Cc5sccc5C)CC4)CC3)cc12 [Example 139, 2-(3,4-dimethoxyphenyl)-3-ethyl-5-(1′-((3-methylthiophen-2-yl)methyl)-[1,4′-bipiperidin]-4-yl)-1H-indole]
479 nM | CCc1c(-c2ccc(OC)c(OC)c2)[nH]c2ccc(C3CCN(C4CCN(Cc5ccc(C)s5)CC4)CC3)cc12 [Example 140, 2-(3,4-dimethoxyphenyl)-3-ethyl-5-(1′-((5-methylthiophen-2-yl)methyl)-[1,4′-bipiperidin]-4-yl)-1H-indole]
≥ 50000 nM | CCc1c(-c2ccc(OC)c(OC)c2)[nH]c2ccc(C3CCN(C4CCN(Cc5ccc(-c6ccccc6)s5)CC4)CC3)cc12 [Example 141, 2-(3,4-dimethoxyphenyl)-3-ethyl-5-(1′-((5-phenylthiophen-2-yl)methyl)-[1,4′-bipiperidin]-4-yl)-1H-indole]
